Data published in US20120189579A1 (priority 2009, published 2012).
Structures can show the parent of a compound that is named as a salt.

Key:
[1] = molecular target: T1, HCV NS5BΔ21/Gal4-DBD fusion protein (Hepatitis C virus genotype 1b, UniProt Q9WMX2); experiment: 3D-SCREEN assay (NS5B reporter gene assay in Huh-7 cells); assay type: cell-based, HCV genotype 1b
T1 construct: The protein was expressed with a 21 amino acid C-terminal deletion to remove transmembrane domain; expressed in transfected cells; host or cells: Huh-7 (transient transfection)
Description: (§1) Human Hepatoma Huh-7 cell line was maintained in DMEM/HAMF-12 supplemented with 10% SVF, 4 mM glutamine, […] Na pyruvate, 1% penistreptomycine. HCV replicon containing Huh-7 cell lines Huh-9.13 and Luc Neo ET (Reblikon) were maintained in DMEM supplemented with 10% SVF, 2 mM glutamine, and 1×NEAA, 100 U/ml penicillin, and 100 μg/ml streptomycine. Replicon cells were maintained in medium supplemented with 1 mg/ml G418 for replicon Huh-9.13 and 0.5 mg/ml for Luc Neo et replicon unless indicated otherwise. Huh-7 and HCV replicon cell lines were maintained at 37° C. and 5% CO2 in a humidified atmosphere. Cells were dissociated at sub confluence with trypsin EDTA 1×.
cDNA encoding HCV NS5B genotype 1b, was cloned in frame with Gal4-DNA Binding Domain. The protein was expressed with a 21 amino acid C-terminal deletion to remove transmembrane domain. Expression of NS5BΔ21/Gal4 DBD fusion protein was under control of SV40 early promoter. 3D-Sensor peptide was cloned in frame with VP16 activation domain. Expression of 3D-Sensor/VP16 AD fusion protein was under control of CMV promoter. Expression of the firefly luciferase reporter gene was inducible by the [Target protein/conformation sensitive peptide/VP16AD] complex.
It is a single-target, cell based assay. Briefly, expression of a reporter gene depends on the interaction of a short peptide, thereafter named 3D-Sensor, and native conformation of the target protein. Whenever the conformation of the target protein is modified, interaction between 3D-sensor and target protein is disrupted and reporter gene is not expressed anymore. Conformation modifiers are identified by loss of expression of reporter gene. NS5B 3D-Screen platform was generated in Huh-7 cell lines by transient transfection of three expression vectors encoding respectively • (i) HCV NS5BΔ21/Gal4-DBD fusion protein • (ii) the 3D-sensor peptide 14/VP16 fusion protein • (iii) the firefly luciferase reporter gene
Huh-7 cells were dissociated the day before transfection and seeded in T175 flasks at a density of 10^7 cells in 30 ml culture medium. Equimolar ratios of vectors were transfected in cell according to optimized jetPEI transfection protocol (PolyPlus Transfection, Illkirch, France) and 10 μg total DNA/10^6 cells. Transfection was performed for 2 hours at 37° C. and 5% CO2 in a humidified atmosphere. After two hours cells were dissociated and seeded in 96 wells plates at a density of 25,000 cells per well and 90 μl culture medium. 10 μl of compounds to be tested were added 2 hours after seeding. Final concentration of DMSO was 1%. Cells were incubated in the presence of compounds for 24 hours after which expression of firefly luciferase reporter gene was quantified. Briefly, culture medium was removed and cells were lysed by addition of 100 μl of lysis buffer containing 125 mM Tris Phosphate ph 7.8, 10 mM EDTA, 5 mM DTT, 50% glycerol and 5% Triton. Plates were vortexed 10 min at 1300 rpm. Cell lysat was transferred in OpaqueWhite Assay 96 well Flat Bottom plates. 100 μl of luciferin solution 1× were added to each well. Luciferin solution contained 40 mM Tris Phosphate ph 7.8, 0.2 mM EDTA, 67 mM DTT, 2.14 mM MgCl2, 5.4 mM MgSO4, 4.7×10^−4 M luciferin, 5.3×10^−4 M ATP and 2.7×10^−4 M Acetyl co enzyme A. Luminescence was immediately measured with Berthold Microlumat Plus LB 96V luminometer with an integration of 0.5 sec. Inhibition was calculated using the formula: % inhibition=(1−(read/average max))*100. Average max=signal in absence of compound

[2] = test system: HCV replicon Luc Neo ET in Huh-7 cells; experiment: Replicon assay (Luc Neo ET replicon); assay type: cell-based; settings: Hepatitis C virus, 72 hours with compound, firefly luciferase reporter, read-out: EC50—Replicon LucneoET
Description: as §1
Replicon Luc Neo ET is a bicistronic expression constructs (Lohmann et al, 1999, Science 285, 110-113). In brief, the structural genes of the HCV genome were replaced by heterologous sequences; the gene encoding the neomycin phosphotransferase (NPT) and the internal ribosome entry site (IRES) of the encephalomyocarditis virus (EMCV). The bicistronic construct is therefore composed of the following elements: HCV-IRES nucleotides 1-389, the NPT gene, the EMCV-IRES directing translation of downstream HCV sequences from NS2 or NS3 up to the authentic 3′ end of the genome. HCV Polyprotein harbours the cell culture adaptive mutations E1202G, T1280I, K1846T. G418-resistance is only possible with cells containing high amounts of replicon.
Cells were dissociated the day before addition of compounds and seeded in 96 well-plates at a final concentration of 77 777.77 cells·ml^−1·well^−2 in 90 μl final volume of culture medium per well and were maintained at 37° C. and 5% CO2 in a humidified atmosphere for 24 hours. 10 μl of compounds to be tested were added 24 hours after seeding. Final concentration of DMSO was 1%. Cells were incubated in the presence of compounds for 72 hours after which expression of firefly luciferase reporter gene was quantified. Briefly, culture medium was removed and cells were lysed by addition of 100 μl of lysis buffer containing 125 mM Tris Phosphate ph 7.8, 10 mM EDTA, 5 mM DTT, 50% glycerol and 5% Triton. Plates were vortexed 10 min at 1300 rpm. Cell lysat was transferred in OpaqueWhite Assay 96 well Flat Bottom plates. 100 μl of luciferin solution 1× were added to each well. Luciferin solution contained 40 mM Tris Phosphate ph 7.8, 0.2 mM EDTA, 67 mM DTT, 2.14 mM MgCl2, 5.4 mM MgSO4, 4.7×10^−4 M luciferin, 5.3×10^−4 M ATP and 2.7×10^−4 M Acetyl co enzyme A. Luminescence was immediately measured with Berthold Microlumat Plus LB 96V luminometer with an integration of 0.5 sec Inhibition was calculated using the formula:
% inhibition=1−[(RLUsample−RLUbackground)/(RLUsignal−RLUbackground)]

Q: With `CC(C)(C)c1ccc(C2C(C(=O)CCc3ccccc3)=C(O)C(=O)N2c2ncc(S(=O)(=O)c3ccc([N+](=O)[O-])cc3)s2)cc1` (stereo not shown) as the compound, how does the melting point read?
A: 172 °C

Q: Which melting point does the source give for `Cc1ccc(C(=O)C2=C(O)C(=O)N(c3ncc(S(=O)(=O)c4ccc([N+](=O)[O-])cc4)s3)C2c2cccnc2)cc1` (stereo not shown) here?
A: 211 °C

Q: Which melting point does the source give for `COC(=O)c1ccc(C2C(C(=O)c3ccc(OC)cc3)=C(O)C(=O)N2c2nnc(C)s2)cc1` (stereo not shown) here?
A: 255 to 257 °C

Q: Which melting point does the source give for `Cc1ccc(C(=O)C2=C(O)C(=O)N(c3ncc(S(=O)(=O)c4ccc([N+](=O)[O-])cc4)s3)C2c2ccc(C(=O)O)cc2)cc1` (stereo not shown) here?
A: 308 to 309 °C

Q: With `COc1ccc(C(=O)C2=C(O)C(=O)N(c3nnc(C)s3)C2c2cccc(C(=O)O)c2)cc1` (stereo not shown) as the compound, how does the melting point read?
A: 281 °C

Q: With `COc1ccc(C(=O)C2=C(O)C(=O)N(c3nnc(C)s3)C2c2ccc(O)cc2)cc1` (stereo not shown) as the compound, how does the melting point read?
A: 251 °C

Q: With `COC(=O)c1cccc(C2C(C(=O)c3ccc(OC)cc3)=C(O)C(=O)N2c2nnc(C)s2)c1` (stereo not shown) as the compound, how does the melting point read?
A: 218 °C

Q: Which melting point does the source give for `COC1=C(C(=O)c2ccc(C)cc2)C(c2ccc(C(C)C)cc2)N(c2ncc(S(=O)(=O)c3ccc([N+](=O)[O-])cc3)s2)C1=O` (stereo not shown) here?
A: 237 °C

Q: With `COC1=C(C(=O)c2ccc(OC)cc2)C(c2ccc(C(C)(C)C)cc2)N(c2nnc(C)s2)C1=O` (stereo not shown) as the compound, how does the melting point read?
A: 235 to 237 °C

Q: For `Cc1ccc(C(=O)C2=C(O)C(=O)N(c3ncc(S(C)(=O)=O)s3)C2c2ccc(C(C)C)cc2)cc1` (stereo not shown), which melting point is on record?
A: 269 to 271 °C

Q: With `Cc1ccc(C(=O)C2=C(O)C(=O)N(c3ncc(S(=O)(=O)c4ccc([N+](=O)[O-])cc4)s3)C2c2ccc(C(=O)N(C)C)cc2)cc1` (stereo not shown) (as salt: hydrochloride) as the compound, how does the melting point read?
A: 205 °C

Q: For `CNC(=O)c1ccc(C2C(C(=O)c3ccc(C)cc3)=C(O)C(=O)N2c2ncc(S(=O)(=O)c3ccc([N+](=O)[O-])cc3)s2)cc1` (stereo not shown) (as salt: hydrochloride), which melting point is on record?
A: 195 to 197 °C

Q: For `CNC(=O)c1cccc(C2C(C(=O)c3ccc(OC)cc3)=C(O)C(=O)N2c2nnc(C)s2)c1` (stereo not shown) (as salt: hydrochloride), which melting point is on record?
A: 238 °C

Q: Which results are given for `CON=C(C1=C(O)C(=O)N(c2ncc(S(=O)(=O)c3ccc([N+](=O)[O-])cc3)s2)C1c1ccc(C(C)C)cc1)c1ccc(C)cc1` (mixture of isomers) [Example 49, 3-hydroxy-5-(4-isopropyl-phenyl)-4-{[methoxyimino]-p-tolyl-methyl}-1-[5-(4-nitro-benzenesulfonyl)-thiazol-2-yl]-1,5-dihydro-pyrrol-2-one]?
A: EC50 [1]: 4 µM; melting point: 156 °C

Q: With `COC(=O)c1ccc(C2C(C(=O)c3ccc(C)cc3)=C(O)C(=O)N2c2ncc(S(=O)(=O)c3ccc([N+](=O)[O-])cc3)s2)cc1` (stereo not shown) [Example 4, 4-{4-hydroxy-3-(4-methyl-benzoyl)-1-[5-(4-nitro-benzenesulfonyl)-thiazol-2-yl]-5-oxo-2,5-dihydro-1H-pyrrol-2-yl}-benzoic acid methyl ester] as the compound, how does the EC50 [1] read?
A: 10 µM

Q: What about the melting point of the same compound?
A: 249 to 251 °C

Q: With `COc1ccc(C(=O)C2=C(O)C(=O)N(c3nncs3)C2c2ccc(C(C)(C)C)cc2)cc1` (stereo not shown) [Example 18, 5-(4-tert-butyl-phenyl)-3-hydroxy-4-(4-methoxy-benzoyl)-1-[1,3,4]thiadiazol-2-yl-1,5-dihydro-pyrrol-2-one] as the compound, how does the EC50 [1] read?
A: 7 µM

Q: What about the melting point of the same compound?
A: 289 to 291 °C

Q: For `COc1ccc(C(=O)C2=C(O)C(=O)N(c3nnc(C)s3)C2c2ccc(OC(F)(F)F)cc2)cc1` (stereo not shown) [Example 20, 3-hydroxy-4-(4-methoxy-benzoyl)-1-(5-methyl-[1,3,4]thiadiazol-2-yl)-5-(4-trifluoromethoxy-phenyl)-1,5-dihydro-pyrrol-2-one], which EC50 [1] is on record?
A: 4 µM

Q: And the melting point?
A: 245 to 247 °C

Q: What does the source list for `COc1ccc(C(=O)C2=C(O)C(=O)N(c3nnc(C(F)(F)F)s3)C2c2ccc(C(C)(C)C)cc2)cc1` (stereo not shown) [Example 26, 5-(4-tert-butyl-phenyl)-3-hydroxy-4-(4-methoxy-benzoyl)-1-(5-trifluoromethyl-[1,3,4]thiadiazol-2-yl)-1,5-dihydro-pyrrol-2-one]?
A: EC50 [1]: 14 µM; melting point: 271 °C

Q: Which EC50 [2] does the source give for `COc1ccc(C(=O)C2=C(O)C(=O)N(c3nnc(C)s3)C2c2ccc(Cl)c(Cl)c2)cc1` (stereo not shown) [Example 31] here?
A: 33 µM

Q: With `COc1ccc(C(=O)C2=C(O)C(=O)N(c3nnc(C(C)C)s3)C2c2ccc(C(C)(C)C)cc2)cc1` (stereo not shown) [Example 35, 5-(4-tert-butyl-phenyl)-3-hydroxy-1-(5-isopropyl-[1,3,4]thiadiazol-2-yl)-4-(4-methoxy-benzoyl)-1,5-dihydro-pyrrol-2-one] as the compound, how does the EC50 [1] read?
A: 4 µM

Q: What about the melting point of the same compound?
A: 257 °C

Q: With `Cc1ccc(C(=O)C2=C(O)C(=O)N(c3ncc(S(=O)(=O)N(C)C)s3)C2c2ccc(C(C)C)cc2)cc1` (stereo not shown) [Example 39, 2-[3-hydroxy-5-(4-isopropyl-phenyl)-4-(4-methyl-benzoyl)-2-oxo-2,5-dihydro-pyrrol-1-yl]-thiazole-5-sulfonic acid dimethylamide] as the compound, how does the EC50 [1] read?
A: 16 µM

Q: And the melting point?
A: 237 to 241 °C

Q: What does the source list for `Cc1ccc(C(=O)C2=C(O)C(=O)N(c3ncc(S(=O)(=O)N4CCOCC4)s3)C2c2ccc(C(C)C)cc2)cc1` (stereo not shown) [Example 41, 3-hydroxy-5-(4-isopropyl-phenyl)-4-(4-methyl-benzoyl)-1-[5-(morpholine-4-sulfonyl)-thiazol-2-yl]-1,5-dihydro-pyrrol-2-one]?
A: EC50 [1]: 16.3 µM; melting point: 247 to 252 °C

Q: Which EC50 [1] does the source give for `CC(C)c1ccc(C(=O)C2=C(O)C(=O)N(c3ncc(S(=O)(=O)c4ccc([N+](=O)[O-])cc4)s3)C2c2ccc(C(F)(F)F)cc2)cc1` (stereo not shown) [Example 126, 3-hydroxy-4-(4-isopropyl-benzoyl)-1-[5-(4-nitro-benzenesulfonyl)-thiazol-2-yl]-5-(4-trifluoromethyl-phenyl)-1,5-dihydro-pyrrol-2-one] here?
A: < 10 µM

Q: And the melting point?
A: 300 to 302 °C

Q: Which results are given for `CC(C)c1ccc(C(=O)C2=C(O)C(=O)N(c3ncc(Sc4ccc([N+](=O)[O-])cc4)s3)C2c2ccc(OC(F)(F)F)cc2)cc1` (stereo not shown) [Example 131, 3-hydroxy-4-(4-isopropyl-benzoyl)-1-[5-(4-nitro-phenylsulfanyl)-thiazol-2-yl]-5-(4-trifluoromethoxy-phenyl)-1,5-dihydro-pyrrol-2-one]?
A: EC50 [1]: 13 µM; melting point: 238 °C
